In ChEMBL document CHEMBL5104232, “Pyrazolines as potential anti-Alzheimer's agents: DFT, molecular docking, enzyme inhibition and pharmacokinetic studies” (RSC Med Chem, 2022) one finds Papp, IC50 and Activity data, which are given here for 18 molecules.

Series [1] can be described thus: Apparent permeability of compound across gastrointestinal tract mimic in PBS buffer incubated for 5 hrs by PAMPA assay based HPLC analysis. Format: ADME. (In general: In PAMPA a lipid-coated filter parts donor from acceptor wells.)
For a further series, the target named is Acetylcholinesterase (Homo sapiens, UniProt P22303).
The nature of series [2]: Apparent permeability of compound across gastrointestinal tract mimic in PBS buffer as membrane retention incubated for 5 hrs by PAMPA assay based HPLC analysis. Format: ADME.

The Papp is the rate of passage across a membrane or cell layer, normalised by area and donor concentration. Broadly, the IC50 is the point on the concentration scale where inhibition reaches its midpoint. Lower therefore signals greater potency in that assay.

Sequence of Acetylcholinesterase (P22303 whole entry): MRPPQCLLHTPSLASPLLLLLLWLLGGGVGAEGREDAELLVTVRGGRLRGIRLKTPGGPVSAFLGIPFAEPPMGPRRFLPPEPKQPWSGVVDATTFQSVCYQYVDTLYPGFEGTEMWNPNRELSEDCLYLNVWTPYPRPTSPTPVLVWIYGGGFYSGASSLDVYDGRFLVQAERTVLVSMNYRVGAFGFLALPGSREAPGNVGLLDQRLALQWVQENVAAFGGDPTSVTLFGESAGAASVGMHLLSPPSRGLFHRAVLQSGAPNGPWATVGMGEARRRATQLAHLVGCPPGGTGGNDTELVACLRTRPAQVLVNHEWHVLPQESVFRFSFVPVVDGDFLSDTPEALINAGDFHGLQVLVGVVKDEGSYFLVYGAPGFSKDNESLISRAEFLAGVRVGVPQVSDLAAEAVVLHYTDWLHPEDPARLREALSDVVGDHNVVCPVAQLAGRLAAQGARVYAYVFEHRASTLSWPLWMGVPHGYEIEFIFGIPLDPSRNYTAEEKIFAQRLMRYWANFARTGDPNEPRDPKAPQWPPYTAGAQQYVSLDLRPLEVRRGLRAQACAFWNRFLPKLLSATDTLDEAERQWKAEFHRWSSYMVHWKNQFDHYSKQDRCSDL
Description for Acetylcholinesterase: Inhibition of human acetylcholinesterase using acetylthiocholine iodide as substrate incubated for 15 mins by Ellman's method

As to `COc1ccc(C2CC(c3ccc(-c4ccccc4)cc3)=NN2C(C)=O)cc1OC` (centres undefined), the Papp at 5 h in series [1] was 9.02 ×10⁻⁶ cm/s. This molecule also gave an IC50 against Acetylcholinesterase of 1430 µM. The Activity in series [2] stood at 9.2%.
On the same counts, the results for `CC(=O)N1N=C(c2ccc(-c3ccccc3)cc2)CC1c1ccccc1` (centres undefined) are 9.15 ×10⁻⁶ cm/s, 1330 µM and 30.7%.
On the same counts, the results for `CC(=O)N1N=C(c2ccc(-c3ccccc3)cc2)CC1c1ccc(C(=O)O)cc1` (centres undefined) are 2.13 ×10⁻⁶ cm/s, 1540 µM and 15%.
On the same counts, the results for `CC(=O)N1N=C(c2ccc(-c3ccccc3)cc2)CC1c1cccc([N+](=O)[O-])c1` (centres undefined) are 9.42 ×10⁻⁶ cm/s, 1030 µM and 27.7%.
As for `CC(=O)N1N=C(c2ccc(Br)cc2)CC1c1ccc(-c2ccccc2)cc1` (centres undefined), the Papp at 5 h in series [1] amounted to 4.9 ×10⁻⁶ cm/s. Besides, the IC50 against Acetylcholinesterase amounted to 0.903 µM. The Activity in series [2] is listed as 49%.
For `CC(=O)N1N=C(c2ccc(-c3ccccc3)cc2)CC1c1ccccc1[N+](=O)[O-]` (centres undefined), in that order: 6.9 ×10⁻⁶ cm/s, 0.64 µM and 47.6%.
As to `CC(=O)N1N=C(c2ccc(-c3ccccc3)cc2)CC1c1ccc([N+](=O)[O-])cc1` (centres undefined), the Papp at 5 h in series [1] worked out at 7.85 ×10⁻⁶ cm/s. On Acetylcholinesterase, this molecule returned an IC50 of 1560 µM. The Activity in series [2] came to 32.6%.
For `COc1ccc(C2=NN(C(C)=O)C(c3ccc(-c4ccccc4)cc3)C2)c(OC)c1` (centres undefined), in that order: 1 ×10⁻⁶ cm/s, 1130 µM and 18.4%.
For `COc1cc(C2=NN(C(C)=O)C(c3ccc(-c4ccccc4)cc3)C2)cc(OC)c1OC` (centres undefined), in that order: 7.89 ×10⁻⁶ cm/s, 1950 µM and 9.5%.
For `CC(=O)N1N=C(c2ccc3c(c2)OCO3)CC1c1ccc(-c2ccccc2)cc1` (centres undefined), the Papp at 5 h in series [1] is 8.44 ×10⁻⁶ cm/s. Besides, the midpoint of inhibition against Acetylcholinesterase, the IC50, lay at 0.913 µM. The Activity in series [2] is 17%.
On the same counts, the results for `CC(=O)N1N=C(c2cccc3ccccc23)CC1c1ccc(-c2ccccc2)cc1` (centres undefined) are 5.47 ×10⁻⁶ cm/s, 1010 µM and 35.8%.
On the same counts, the results for `CC(=O)N1N=C(c2ccc3ccccc3c2)CC1c1ccc(-c2ccccc2)cc1` (centres undefined) are 4.43 ×10⁻⁶ cm/s, 0.068 µM and 56.9%.
For `CC(=O)N1N=C(c2ccc(-c3ccccc3)cc2)CC1c1ccc2c(c1)OCO2` (centres undefined), in that order: 8.75 ×10⁻⁶ cm/s, 0.988 µM and 33.7%.
With `CC(=O)N1N=C(c2ccc(C)cc2)CC1c1ccc(-c2ccccc2)cc1` (centres undefined), the Papp at 5 h in series [1] was found to be 4.27 ×10⁻⁶ cm/s. At Acetylcholinesterase, half-maximal inhibition (IC50) required 0.845 µM. The Activity in series [2] is 44.3%.
Turning to `CC(=O)N1N=C(c2ccccc2[N+](=O)[O-])CC1c1ccc(-c2ccccc2)cc1` (centres undefined), the Papp at 5 h in series [1] was found to be 1.22 ×10⁻⁶ cm/s. The molecule further returned an IC50 at Acetylcholinesterase of 0.052 µM. The Activity in series [2] was 6.6%.
For `COc1ccc(OC)c(C2=NN(C(C)=O)C(c3ccc(-c4ccccc4)cc3)C2)c1` (centres undefined), in that order: 6.87 ×10⁻⁶ cm/s, 1700 µM and 36.2%.
For `CC(=O)N1N=C(c2ccc(-c3ccccc3)cc2)CC1c1ccc2ccccc2c1` (centres undefined), in that order: 3.36 ×10⁻⁶ cm/s, 0.799 µM and 59.7%.
For `COc1ccc(OC)c(C2CC(c3ccc(-c4ccccc4)cc3)=NN2C(C)=O)c1` (centres undefined), in that order: 6.94 ×10⁻⁶ cm/s, 1420 µM and 38.3%.
